The values that follow come from patent publication US8952162B2, “Triazolopyridines as phosphodiesterase inhibitors for treatment of dermal diseases” (Leo Pharma A/S, priority 2008, dated 2015).

A value given as a limit tells only on which side of the number the result lay.

Sequence of Human recombinant PDE4 (Genbank accession no NM—006203) (Q08499 1-673 isoform Q08499-2): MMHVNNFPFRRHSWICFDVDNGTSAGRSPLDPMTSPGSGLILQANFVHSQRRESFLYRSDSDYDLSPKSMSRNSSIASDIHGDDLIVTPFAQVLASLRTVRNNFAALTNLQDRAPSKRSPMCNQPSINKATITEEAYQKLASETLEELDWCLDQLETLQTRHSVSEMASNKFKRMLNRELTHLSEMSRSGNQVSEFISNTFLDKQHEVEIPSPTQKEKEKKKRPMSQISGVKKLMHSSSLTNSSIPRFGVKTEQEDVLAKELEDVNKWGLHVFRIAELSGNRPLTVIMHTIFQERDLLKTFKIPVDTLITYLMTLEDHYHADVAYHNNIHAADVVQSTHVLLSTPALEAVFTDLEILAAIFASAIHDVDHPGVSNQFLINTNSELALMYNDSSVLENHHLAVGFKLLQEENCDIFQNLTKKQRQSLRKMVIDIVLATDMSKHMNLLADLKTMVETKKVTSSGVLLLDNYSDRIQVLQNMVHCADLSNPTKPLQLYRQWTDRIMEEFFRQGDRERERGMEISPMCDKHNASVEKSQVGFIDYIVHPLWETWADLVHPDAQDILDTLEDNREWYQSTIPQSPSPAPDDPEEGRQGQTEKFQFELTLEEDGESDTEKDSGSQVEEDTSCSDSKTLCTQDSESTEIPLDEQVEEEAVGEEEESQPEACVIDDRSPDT

The target of the assay is Human recombinant PDE4 (Genbank accession no NM—006203) (Homo sapiens, UniProt Q08499). The assay can be described thus: PDE4 assay (SPA, cAMP cleavage). Type of assay: biochemical. The settings on record: Example 53; PDE4 assay as in example 52; read-out: PDE4 IC50 range. On the procedure:
At the end of the incubation, the cleavage of the substrate was evaluated by the binding of the AMP product to SPA beads, which generate chemoluminescence when bound to the radioactive tracer. The AMP product inhibited the binding of the radioactive tracer to the beads, and the luminescent signal was competed.
For the compound `COc1ccc(-c2cccc(C#N)c2)n2nc(C3(C(=O)NCc4ccccc4)CC3)nc12` [Compound 197, 1-[5-(3-Cyano-phenyl)-8-methoxyl-[1,2,4]triazolo[1,5-a]pyridin-2-yl]-cyclopropanecarboxylic acid benzylamide], the 50% inhibitory concentration (IC50) was less than 500 nM. For the compound `COc1ccc(-c2cccc(C#N)c2)n2nc(C3(C(=O)NCCS(N)(=O)=O)CC3)nc12` [Compound 198, 1-[5-(3-Cyano-phenyl)-8-methoxyl-[1,2,4]triazolo[1,5-a]pyridin-2-yl]-cyclopropanecarboxylic acid (2-sulfamoyl-ethyl)-amide], the IC50 was less than 500 nM. As for `COc1ccc(-c2cccc(C#N)c2)n2nc(C3(C(=O)NCCS(C)(=O)=O)CC3)nc12` [Compound 199, 1-[5-(3-Cyano-phenyl)-8-methoxy-[1,2,4]triazolo[1,5-a]pyridin-2-yl]-cyclopropanecarboxylic acid (2-methanesulfonyl-ethyl)-amide], the IC50 was less than 500 nM. `COc1ccc(-c2cccc(C#N)c2)n2nc(C3(C(=O)N4CCCC4)CC3)nc12` [Compound 200, 3-{8-Methoxy-2-[1-(pyrrolidine-1-carbonyl)-cyclopropyl]-[1,2,4]triazolo[1,5-a]pyridin-5-yl}-benzonitrile]: the IC50 fell in the range of 500 to 1000 nM. The result for `C=C(C)C(=O)OCCNC(=O)C1(c2nc3c(OC)ccc(-c4cccc(C#N)c4)n3n2)CC1` [Compound 201, 2-Methyl-acrylic acid 2-({1-[5-(3-cyano-phenyl)-8-methoxy-[1,2,4]triazolo[1,5-a]pyridin-2-yl]-cyclopropanecarbonyl}-amino)-ethyl ester] reads less than 500 nM; that for `COCCNC(=O)C1(c2nc3c(OC)ccc(-c4cccc(C#N)c4)n3n2)CC1` [Compound 202, 1-[5-(3-Cyano-phenyl)-8-methoxy-[1,2,4]triazolo[1,5-a]pyridin-2-yl]-cyclopropanecarboxylic acid (2-methoxy-ethyl)-amide], less than 500 nM.

Turning to `COc1ccc(-c2ccc(C#N)cc2)n2nc(C3(C(=O)NCc4cccnc4)CC3)nc12` [Compound 203, 1-[5-(4-Cyano-phenyl)-8-methoxy-[1,2,4]triazolo[1,5-a]pyridin-2-yl]-cyclopropanecarboxylic acid (pyridin-3-ylmethyl)-amide], the IC50 is less than 500 nM. `COc1ccc(-c2ccc(C#N)cc2)n2nc(C3(C(=O)N4CCN(C)CC4)CC3)nc12` [Compound 204, 4-{8-Methoxy-2-[1-(4-methyl-piperazine-1-carbonyl)-cyclopropyl]-[1,2,4]triazolo[1,5-a]pyridin-5-yl}-benzonitrile]: the IC50 is greater than 1000 nM. The result for `COc1ccc(-c2ccc(C#N)cc2)n2nc(C3(C(=O)N4CCOCC4)CC3)nc12` [Compound 205, 4-{8-Methoxy-2-[1-(morpholine-4-carbonyl)-cyclopropyl]-[1,2,4]triazolo[1,5-a]pyridin-5-yl}-benzonitrile] reads greater than 1000 nM; that for `COc1ccc(-c2ccc(C#N)cc2)n2nc(C3(C(=O)NCc4ccccc4)CC3)nc12` [Compound 206, 1-[5-(4-Cyano-phenyl)-8-methoxy-[1,2,4]triazolo[1,5-a]pyridin-2-yl]-cyclopropanecarboxylic acid benzylamide], less than 500 nM. Take `COc1ccc(-c2ccc(C#N)cc2)n2nc(C3(C(=O)NCCS(N)(=O)=O)CC3)nc12` [Compound 207, 1-[5-(4-Cyano-phenyl)-8-methoxy-[1,2,4]triazolo[1,5-a]pyridin-2-yl]-cyclopropanecarboxylic acid (2-sulfamoyl-ethyl)-amide]: the IC50 is less than 500 nM. For the compound `COc1ccc(-c2ccc(C#N)cc2)n2nc(C3(C(=O)NCCS(C)(=O)=O)CC3)nc12` [Compound 208, 1-[5-(4-Cyano-phenyl)-8-methoxy-[1,2,4]triazolo[1,5-a]pyridin-2-yl]-cyclopropanecarboxylic acid (2-methanesulfonyl-ethyl)-amide], the IC50 was less than 500 nM.

With `COc1ccc(-c2ccc(C#N)cc2)n2nc(C3(C(=O)NC(C)C)CC3)nc12` [Compound 209, 1-[5-(4-Cyano-phenyl)-8-methoxy-[1,2,4]triazolo[1,5-a]pyridin-2-yl]-cyclopropanecarboxylic acid isopropylamide], the IC50 was less than 500 nM. Consider `CNC(=O)C1(c2nc3c(OC)ccc(-c4ccc(C#N)cc4)n3n2)CC1` [Compound 210, 1-[5-(4-Cyano-phenyl)-8-methoxy-[1,2,4]triazolo[1,5-a]pyridin-2-yl]-cyclopropanecarboxylic acid methylamide], for which the IC50 was less than 500 nM. With `CCNC(=O)C1(c2nc3c(OC)ccc(-c4ccc(C#N)cc4)n3n2)CC1` [Compound 211, 1-[5-(4-Cyano-phenyl)-8-methoxy-[1,2,4]triazolo[1,5-a]pyridin-2-yl]-cyclopropanecarboxylic acid ethylamide], the IC50 was less than 500 nM. Consider `CCCNC(=O)C1(c2nc3c(OC)ccc(-c4ccc(C#N)cc4)n3n2)CC1` [Compound 212, 1-[5-(4-Cyano-phenyl)-8-methoxy-[1,2,4]triazolo[1,5-a]pyridin-2-yl]-cyclopropanecarboxylic acid propylamide], for which the IC50 was less than 500 nM.

On to `COc1ccc(-c2ccc(C#N)cc2)n2nc(C3(C(=O)NC4CC4)CC3)nc12` [Compound 213, 1-[5-(4-Cyano-phenyl)-8-methoxy-[1,2,4]triazolo[1,5-a]pyridin-2-yl]-cyclopropanecarboxylic acid cyclopropylamide], for which the IC50 is less than 500 nM. As to `COc1ccc(-c2ccc(C#N)cc2)n2nc(C3(C(=O)NCC(C)C)CC3)nc12` [Compound 214, 1-[5-(4-Cyano-phenyl)-8-methoxy-[1,2,4]triazolo[1,5-a]pyridin-2-yl]-cyclopropanecarboxylic acid isobutyl-amide], the IC50 was less than 500 nM.

For `COc1ccc(-c2ccc(C#N)cc2)n2nc(C3(C(=O)NCC#N)CC3)nc12` [Compound 215, 1-[5-(4-Cyano-phenyl)-8-methoxy-[1,2,4]triazolo[1,5-a]pyridin-2-yl]-cyclopropanecarboxylic acid cyanomethyl-amide], the IC50 was less than 500 nM. Turning to `COc1ccc(-c2ccc(C#N)cc2)n2nc(C3(C(=O)NCCNC(C)=O)CC3)nc12` [Compound 216, 1-[5-(4-Cyano-phenyl)-8-methoxy-[1,2,4]triazolo[1,5-a]pyridin-2-yl]-cyclopropanecarboxylic acid (2-acetylamino-ethyl)-amide], the half-inhibitory concentration (IC50) was less than 500 nM. With `COc1ccc(-c2ccc(C#N)cc2)n2nc(C3(C(=O)NCCNS(C)(=O)=O)CC3)nc12` [Compound 217, 1-[5-(4-Cyano-phenyl)-8-methoxy-[1,2,4]triazolo[1,5-a]pyridin-2-yl]-cyclopropanecarboxylic acid (2-methanesulfonylamino-ethyl)-amide], the IC50 is less than 500 nM. The result for `COc1ccc(-c2ccc(C#N)cc2)n2nc(C3(C(=O)NCCC(=O)N4CCOCC4)CC3)nc12` [Compound 218, 1-[5-(4-Cyano-phenyl)-8-methoxy-[1,2,4]triazolo[1,5-a]pyridin-2-yl]-cyclopropanecarboxylic acid (3-morpholin-4-yl-3-oxo-propyl)-amide] reads less than 500 nM; that for `COc1ccc(-c2ccc(C#N)cc2)n2nc(C3(C(=O)NCCS(=O)(=O)N(C)C)CC3)nc12` [Compound 219, 1-[5-(4-Cyano-phenyl)-8-methoxy-[1,2,4]triazolo[1,5-a]pyridin-2-yl]-cyclopropanecarboxylic acid (2-dimethylsulfamoyl-ethyl)-amide], less than 500 nM.

By IC50 is commonly meant the concentration at which inhibition is half-maximal.
